For test [1], the target named is T1, SCO7701 (C-methyltransferase) (Streptomyces coelicolor, UniProt Q9F1Y5).
T1 sequence (Q9F1Y5 1-292): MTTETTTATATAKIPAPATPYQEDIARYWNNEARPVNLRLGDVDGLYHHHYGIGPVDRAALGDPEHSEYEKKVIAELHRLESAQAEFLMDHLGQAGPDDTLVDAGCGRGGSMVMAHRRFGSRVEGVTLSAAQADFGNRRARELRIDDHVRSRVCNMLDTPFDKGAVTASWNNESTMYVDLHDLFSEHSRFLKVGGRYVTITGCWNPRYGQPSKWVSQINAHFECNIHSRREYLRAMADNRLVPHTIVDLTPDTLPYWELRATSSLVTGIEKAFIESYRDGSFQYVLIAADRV
The experiment in a line: incubation with recombinant enzyme, product identification. In kind it is biochemical.

Test [2] concerns the target T2, epi-isozizaene synthase (SCO5222) (Streptomyces coelicolor, UniProt Q9K499).
T2 sequence (Q9K499 1-361): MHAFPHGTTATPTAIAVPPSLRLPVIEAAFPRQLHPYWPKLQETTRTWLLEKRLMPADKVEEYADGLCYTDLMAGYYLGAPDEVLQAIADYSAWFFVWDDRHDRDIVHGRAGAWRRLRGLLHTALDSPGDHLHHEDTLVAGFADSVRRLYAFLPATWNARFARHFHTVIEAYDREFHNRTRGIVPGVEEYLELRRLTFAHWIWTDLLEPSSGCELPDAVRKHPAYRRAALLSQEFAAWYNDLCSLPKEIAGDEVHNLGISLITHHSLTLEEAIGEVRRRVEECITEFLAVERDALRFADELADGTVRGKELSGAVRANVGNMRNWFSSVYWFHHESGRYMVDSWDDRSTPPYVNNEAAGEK
Described as above. Type of test: biochemical.

Test [3] concerns the target T3, avermitilol synthase (SAV_76) (Streptomyces avermitilis, UniProt Q82RR7).
T3 sequence (Q82RR7 1-335): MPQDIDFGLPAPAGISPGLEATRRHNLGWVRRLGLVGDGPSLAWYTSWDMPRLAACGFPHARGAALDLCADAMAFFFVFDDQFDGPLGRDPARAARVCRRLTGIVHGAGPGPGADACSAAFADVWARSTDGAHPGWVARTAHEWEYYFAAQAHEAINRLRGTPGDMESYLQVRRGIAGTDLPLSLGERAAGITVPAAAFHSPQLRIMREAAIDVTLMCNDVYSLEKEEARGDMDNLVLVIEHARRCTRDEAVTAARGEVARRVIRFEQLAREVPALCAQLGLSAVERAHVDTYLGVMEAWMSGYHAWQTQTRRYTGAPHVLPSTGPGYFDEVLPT
The experiment in a line: incubation with purified recombinant enzyme, product identification. Type of test: biochemical. As to conditions: main product avermitilol.

Test [4] concerns the target T4, PtlA (SAV_2998), pentalenene synthase (Streptomyces avermitilis, UniProt Q82IY4).
T4 sequence (Q82IY4 1-336): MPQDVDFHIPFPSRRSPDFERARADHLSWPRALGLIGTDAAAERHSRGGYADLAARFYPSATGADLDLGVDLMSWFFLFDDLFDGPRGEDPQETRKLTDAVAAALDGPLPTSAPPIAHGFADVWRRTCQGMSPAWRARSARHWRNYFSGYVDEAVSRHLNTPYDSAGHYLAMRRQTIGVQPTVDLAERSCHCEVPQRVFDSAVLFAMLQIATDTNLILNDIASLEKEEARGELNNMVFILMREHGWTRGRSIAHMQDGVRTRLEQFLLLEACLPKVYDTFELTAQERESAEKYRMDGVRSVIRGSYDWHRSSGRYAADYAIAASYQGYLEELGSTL
The experiment in a line: incubation with recombinant enzyme, product identification. Type of test: biochemical.

Test [5] concerns the target PtlI (SAV_2999) (Streptomyces avermitilis, UniProt Q82IY3). The settings on record: oxidation to pentalenal.

For the molecule `CC(C)=CCC/C(C)=C/COP(=O)(O)OP(=O)(O)O` [compound 3, geranyl diphosphate], the “incubation with recombinant enzyme, product identification” value (“incubation with recombinant enzyme” for short) in test [1] (co-substrate SAM, product 2-MeGPP) is “Incubation of GPP and SAM with recombinant SCO7701 gave exclusively”. In the case of `C[S+](CC[C@H](N)C(=O)O)C[C@H]1O[C@@H](n2cnc3c(N)ncnc32)[C@H](O)[C@@H]1O` (stereo partly drawn) [S-adenosyl-L-methionine], the “incubation with recombinant enzyme” value in test [1] (co-substrate GPP, methyl donor) was “Incubation of GPP and SAM with recombinant SCO7701 gave exclusively”. For `CC(C)=CCC/C(C)=C/CC/C(C)=C/COP(=O)(O)OP(=O)(O)O` [compound 4, farnesyl diphosphate], the entries for the “incubation with recombinant enzyme” value in test [2] and in test [4] were “Incubation of the recombinant protein with FPP gave as the major product” and “Incubation of recombinant PtlA with FPP gave pentalenene”, respectively. Further, the “incubation with purified recombinant enzyme, product identification” value in test [3] is recorded as “Incubation of the purified recombinant SAV76 protein with FPP gave a mixture”. For the molecule `CC1=C[C@@H]2CC(C)(C)C[C@@]23[C@H](C)CC[C@@H]13` [compound 6, pentalenene], the “expressed enzyme, product identification” value in test [5] is given as “cytochrome P450 catalyzing the 3-step oxidation of pentalenene to pentalenal”.

Values taken from PMC3288161 (Accounts of Chemical Research, 2011).
